Measurements as given in patent US7745390B2, “Antimicrobial peptides” (priority 2005, dated 2010).
Square brackets hold non-standard residues; d marks the D form. Ends that are not written are not given here. Peptide text beside a SMILES is read from it.

B1: recombinant granulysin: protein expressed by human cytotoxic T lymphocytes and natural killer cells, recombinant form (protein, UniProt P22749 23-145, looked up)
Granulysin: RLSPEYYDLARAHLRDEEKSCPCLAQEGPQGDLLTKTQELGRDYRTCLTIVQKLKKMVDKPTQRSVSNAATRVCRTGRSRWRDVCRNFMRRYQSRVTQGLVAGETAQQICEDLRLCIPSTGPL

Tests used:
[1] = test system: B. cereus; type: cell-based; conditions: pH 7.2
In short: (§1)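 First, peptides in 10 mM phosphate pH 7.2 with 0.03% LB meet bacteria (~5×10^6 CFU/ml). Second, incubation runs 3 h at 37 °C. Third, LB is added and plates grow overnight before OD600 reading.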

[2] = test system: E. coli DH5a; type: cell-based; conditions: DH5a, pH 7.2
In short: as §1

[3] = test system: Salmonella; type: cell-based, S. typhimurium; conditions: pH 7.2
In short: as §1

[4] = test system: human peripheral blood mononuclear cells (PBMC); test: Propidium iodide uptake in PBMC; type: cell-based; conditions: for PI uptake in normal human PBMC: 50 μM peptide, three hours
Source text: The second assay for effects on mammalian cells involved isolating human peripheral blood mononuclear cells (PBMC) and testing peptide induced uptake of propidium iodide (PI), a measure of membrane disruption. […] Thus, the vast majority of granulysin peptide derivatives are not toxic to mammalian cells even at high concentrations.

[5] = test system: U937 cells; test: Lysis of tumor cells: apoptosis of U937 by 3H-thymidine; conditions: U937, 50 μM peptide, 4-6 hours
Protocol: The effects were tested in two ways. First, peptides were tested for the ability to lyse tumor cells, as judged by induction of apoptosis in the monocyte-like cell line U937. U937 cells were cultured overnight in DMEM supplemented with 10% FCS plus 1 μCi/ml ^3H-thymidine. The next day, cells were washed and cultured in DMEM/10% FCS in the presence of 50 μM peptide for 4-6 hours. Cells were then harvested and ^3H-thymidine determined by beta-scintillation counting. Apoptosis results in DNA fragmentation, so the ^3H-thymidine is reduced in cells undergoing apoptosis.

[6] = test system: Jurkat cells; type: cell-based
Source text: (§2) To further investigate the contribution of secondary structure to function, additional Peptides G16-G19 (beyond peptides G1-G15, previously reported) were synthesized. Peptide G16 is identical to G13, except that a D-alanine residue was substituted for the L-alanine at position 30. […] In peptide G17, the two arginine residues in loop two are substituted with glutamine.
(§3) As shown above, substitution of the two arginine residues in Loop 2 with glutamine abrogates activity against Jurkat cells but only slightly affects lysis of S. typhimurium. Peptide G18 is identical to G14 except that a D-arginine was substituted at position 46. […] Peptide G19 incorporates both the R→Q substitutions as well as the D-arginine at position 46.

[7] = test system: S. typhimurium; test: Lysis of bacteria by counting bacterial colonies on plates; type: cell-based; conditions: colony counting
Source text: as §2, §3
The experiments described above characterizing the activity of granulysin peptides G1-G18 relied on counting bacterial colonies on plates. This assay is quite labor intensive and would not allow evaluation of many different compounds on a number of different microbes. Therefore, we optimized an assay in which the entire procedure could be completed in a single microtiter well. […] The OD at 600 nm is read on an ELISA plate reader. […]

[8] = test system: E. coli; conditions: previously reported; cited from earlier work

Molecule	B. cereus MIC [1] [µM]	IC50 [1] [nM]	E. coli DH5a MIC [2] [µM]	IC50 [2] [nM]	IC50 [3] [nM]	Salmonella MIC [3] [µM]	toxicity against mammalian cells [4]	PI uptake in normal human PBMC [4]	apoptosis of tumor cells [5]	lysis of Jurkat cells [6]	lysis of bacteria (S. typhimurium) [7]	activity depending on ionic strength of media [8]
CC[C@@H](C)[C@@H](NC(=O)[C@@H](CCCNC(=N)N)NC(=O)[C@@H](CCCNC(=N)N)NC(=O)[C@@H](CO)NC(=O)[C@@H](CCCNC(=N)N)NC(=O)[C@@H](Cc1ccc(O)cc1)NC(=O)[C@@H](CCCNC(=N)N)NC(=O)[C@@H](CCCNC(=N)N)NC(=O)[C@@H](CCSC)NC(=O)[C@@H](Cc1ccccc1)NC(=O)[C@@H](CCCNC(=N)N)NC(=O)[C@@H](CCCNC(=N)N)NC(=O)[C@@H](CO)NC(=O)[C@H](NC(=O)[C@@H](CCCNC(=N)N)NC(=O)[C@H](N)CCCNC(=N)N)C(C)C)C(=O)N[C@H](CCCNC(=N)N)C(=O)N[C@H](CCCNC(=N)N)C(=O)N[C@H](CC(C)C)C(=O)N[C@@H](C(=O)O)C(C)C [Peptide G12.34, rrvsrrfmrryrsrrirrlv] (H-[dR][dR][dV][dS][dR][dR][dF][dM][dR][dR][dY][dR][dS][dR][dR][dI][dR][dR][dL][dV]-OH)	0.31	120	0.2	110	210	0.78	somewhat lytic against mammalian cells	caused PI uptake in normal human PBMC	cause apoptosis of tumor cells	–	–	–
CSCC[C@@H](NC(=O)[C@@H](Cc1ccccc1)NC(=O)[C@@H](CCCNC(=N)N)NC(=O)[C@@H](CCCNC(=N)N)NC(=O)[C@@H](CO)NC(=O)[C@H](NC(=O)[C@@H](CCCNC(=N)N)NC(=O)[C@H](N)CCCNC(=N)N)C(C)C)C(=O)N[C@H](CCCNC(=N)N)C(=O)N[C@H](CCCNC(=N)N)C(=O)N[C@H](Cc1ccc(O)cc1)C(=O)N[C@H](CCCNC(=N)N)C(=O)N[C@H](CO)C(=O)N[C@H](CCCNC(=N)N)C(=O)N[C@H](CCCNC(=N)N)C(=O)N1CCC[C@@H]1C(=O)N[C@H](CCCNC(=N)N)C(=O)N[C@H](CCCNC(=N)N)C(=O)N[C@H](CC(C)C)C(=O)N[C@@H](C(=O)O)C(C)C [Peptide G12.35, rrvsrrfmrryrsrrprrlv] (H-[dR][dR][dV][dS][dR][dR][dF][dM][dR][dR][dY][dR][dS][dR][dR][dP][dR][dR][dL][dV]-OH)	0.75	450	0.11	< 78	210	0.32	somewhat less toxic against mammalian cells	caused PI uptake in normal human PBMC	cause apoptosis of tumor cells	–	–	–
CSCC[C@H](NC(=O)[C@H](Cc1ccccc1)NC(=O)[C@H](CC(N)=O)NC(=O)[C@@H](CCCNC(=N)N)NC(=O)[C@H](CS)NC(=O)[C@@H](NC(=O)[C@H](CC(=O)O)NC(=O)[C@H](CCCNC(=N)N)NC(=O)[C@H](Cc1c[nH]c2ccccc12)NC(=O)[C@H](CCCNC(=N)N)NC(=O)[C@H](CO)NC(=O)[C@H](CCCNC(=N)N)NC(=O)CN)C(C)C)C(=O)N[C@@H](CCCNC(=N)N)C(=O)N[C@@H](CCCNC(=N)N)C(=O)O [Peptide G18, GRSRWRDVCrNFMRR] (H-GRSRWRDVC[dR]NFMRR-OH)	–	–	–	–	–	–	–	–	–	loses some activity against Jurkat cells	–	–
GQSQWRDVCrNFMRR [Peptide G19]	–	–	–	–	–	–	–	–	–	–	behaves identically to G115	–
GRSRWRDVCRNFMRR [Peptide G14, GRSRWRDVCRNFMRR, reference compound]	2.8	1750	1.37	890	890	1.37	–	–	–	lyses both bacteria and mammalian cells	–	–
QRSVSNAaTRVCRTGQSQW [Peptide G17]	–	–	–	–	–	–	–	–	–	Neither peptide G16 nor G17 lysed Jurkat cells in an appreciable way	no longer exhibits activity against S. typhimurium	–
B1	–	–	–	–	–	–	–	–	–	–	–	completely loses activity in media>50 mM salt
